{"source": "paper PMC6385203", "about": "“Mutations in the palm domain disrupt modulation of acid-sensing ion channel 1a currents by neuropeptides” (Scientific Reports, 2019)", "key": {"[1]": {"tested_on": "ASIC1a S240C", "assay": "Modification of Cys mutant by MTSET", "format": "cell-based, human", "conditions": "1 mM MTSET 3 min, pH dependence of activation and SSD, n=4-6", "procedure": "(§1) Figure S2. Modification of Cys mutants by MTSET. To determine whether exposure to MTSET modified specific Cys mutants, we applied pH protocols that detect shifts in the pH dependence of activation and of steady-state desen sitization (SSD) to ASIC1a-e xpressing oocytes, before and after a 3-min exposure to 1mM MTSET. a, illustration of the experimental protocol at the example of the E97C mutant. The acidic solution was applied once every minute, except during the incubation with MTSET. b, ratio of current amplitudes obtained at pH6.5 and pH5 from the conditioning pH7.4, as a measure of the pH dependence of activation, before (open bars) and after MTSET expo sure (red bars). c, ratio of the current amplitude at pH5 from the conditioning pH7.15 / the current amplitude at pH5 obtained from the conditioning pH7.4, as an indication of the pH dependence of SSD, n=4-6. *, p<0.05; **, p<0.01; ***, p<0.001; ****, p<0.0001; different between control and MTSET condition, […]\n(§2) WT ASIC1a3,4. If a functional property is changed after MTSET incubation and its washout, it is concluded that the engineered Cys residue has been modified by MTSET. This analysis […]\n(§3) (1 picture or pasted object on this page, not shown here)"}, "[2]": {"tested_on": "ASIC1a E242C", "assay": "Modification of Cys mutant by MTSET", "format": "cell-based, human", "conditions": "1 mM MTSET 3 min, pH dependence of activation and SSD, n=4-6", "procedure": "as §1, §2, §3"}, "[3]": {"tested_on": "ASIC1a F302C", "assay": "Modification of Cys mutant by MTSET", "format": "cell-based, human", "conditions": "1 mM MTSET 3 min, pH dependence of activation and SSD, n=4-6", "procedure": "as §1, §2, §3"}, "[4]": {"tested_on": "ASIC1a E97C", "assay": "Modification of Cys mutant by MTSET", "format": "cell-based, human", "conditions": "1 mM MTSET 3 min, pH dependence of activation and SSD, n=4-6", "procedure": "as §1, §2, §3"}, "[5]": {"tested_on": "ASIC1a L280C", "conditions": "L280C mutant; cited from earlier work", "excerpt": "(§4) Based on in silico docking, mutagenesis and functional validation, our study points to the side cavities of the central vestibule as the most probable binding sites for the peptide FRRFa. […] The 40-amino acid peptide toxin PcTx1 binds into the acidic pocket and to the subunit interface ..."}, "[6]": {"tested_on": "ENaC/degenerin ion channel family", "conditions": "cited from earlier work", "excerpt": "(§5) FaNaC-like channels have been described in mollusks and Hydra[8]–[10], but not in mammals. Mammals express FMRFa-related peptides that exert their pharmacological actions mainly by binding to G protein-coupled receptors. Mammalian FMRFa-like peptides contain more than four residues. Since they ..."}, "[7]": {"tested_on": "ASIC1a", "conditions": "cited from earlier work; for competition between functional effects: PcTx1 vs big dynorphin", "excerpt": "as §4"}, "[8]": {"tested_on": "FaNaC", "conditions": "molluscan FaNaC; cited from earlier work", "excerpt": "as §5"}, "[9]": {"tested_on": "ASIC1- and ASIC3-containing channels", "conditions": "FMRFa and related peptides; cited from earlier work", "excerpt": "as §5"}, "[10]": {"tested_on": "ASIC1a", "conditions": "cited from earlier work", "procedure": "Currently it is not known where in the ASICs the RFa peptides bind. […] Our docking studies predicted possible b ... || ASIC1a function was measured by two-electrode voltage-clamp after recombinant expression in Xenopus oocytes. The channels were activated by a pH5 stimulation solution from a conditioning solution of pH7.4. […] We measured the rate of FRRFa unbinding, as the disappearance of the sustained current after a 50-s incubation with 50 μM FRRFa, as 0.025 ± 0.005 s^−1 (n = 8, Fig. 2b)."}}, "note": "“Also recorded” adds a separate entry of the source. Ends that are not written are not given here.", "data": [{"molecule": "C[N+](C)(C)CCSS(C)(=O)=O", "note": "[MTSET, [2-(trimethylamonium)ethyl] methanethiosulfonate]", "values": [{"measurement": "modification by MTSET", "setting": "[1]", "value": "evidence for modification by MTSET; also recorded: exposure to MTSET changes the properties of the mutants E97C, S240C and E242C"}, {"measurement": "modification by MTSET", "setting": "[2]", "value": "evidence for modification by MTSET; also recorded: exposure to MTSET changes the properties of the mutants E97C, S240C and E242C"}, {"measurement": "modification by MTSET", "setting": "[3]", "value": "evidence for modification by MTSET"}, {"measurement": "modification by MTSET", "setting": "[4]", "value": "evidence for modification by MTSET; also recorded: exposure to MTSET changes the properties of the mutants E97C, S240C and E242C"}, {"measurement": "effect of MTSET modification on sustained current fraction", "setting": "[5]", "value": "strongly increases the sustained current fraction"}]}, {"molecule": "N=C(N)NC(=O)c1nc(Cl)c(N)nc1N", "note": "[amiloride]", "values": [{"measurement": "inhibition of ENaC/degenerin channels", "setting": "[6]", "value": "inhibited by amiloride"}]}, {"molecule": "PcTx1: 40-amino acid peptide toxin PcTx1 (EDCIPKWKGCVNRHGDCCEGLECWKRRRSFEVCVPKTPKT; ends and bridges not checked; cysteine pairing not given here; UniProt P60514 1-40, looked up)", "values": [{"measurement": "competition between functional effects", "setting": "[7]", "value": "a competition between the functional effects of PcTx1 and the peptide big dynorphin"}]}, {"molecule": "Phe-Met-Arg-Phe-amide [FMRFa]", "values": [{"measurement": "channel activation", "setting": "[8]", "value": "activated by the neuropeptide Phe-Met-Arg-Phe-amide (FMRFa)"}, {"measurement": "effects on ASIC desensitization, sustained current and SSD", "setting": "[9]", "value": "slow the desensitization time course of ASIC1- and ASIC3-containing channels and induce a sustained (non-desensitizing) current as well as an acidic shift in the SSD pH dependence of ASIC1a"}, {"measurement": "requirement of pre-application", "setting": "[10]", "value": "affect ASIC1a currents only when pre-applied with the conditioning solution at pH 7.4"}]}, {"molecule": "big dynorphin: a remotely related Arg-rich 32-amino acid peptide", "values": [{"measurement": "competition between functional effects", "setting": "[7]", "value": "a competition between the functional effects of PcTx1 and the peptide big dynorphin"}, {"measurement": "modulation of ASIC1a", "setting": "[7]", "value": "modulates ASIC1a in a similar way as RFa peptides do"}]}]}
